Assay results published in US7732666B1, “O-methyltransferase gene from sorghum cloning, expression, transformation and characterization” (priority 2006, dated 2010).

What was measured:
Format in all cases: biochemical
SbOMT1 [1] = molecular target: T1, SbOMT1 (Sorghum bicolor, UniProt A8QW52); assay: GC-MS analysis of products of recombinant SbOMT1 reacted with resveratrol
T1 construct: full-length open reading frames for all three OMTs were overexpressed in E. coli as N-terminal polyhistidine fusions; polyhistidine (pET15b) (N); made in house; host or cells: E. coli BL21/DE3
T1 sequence (A8QW52 1-376): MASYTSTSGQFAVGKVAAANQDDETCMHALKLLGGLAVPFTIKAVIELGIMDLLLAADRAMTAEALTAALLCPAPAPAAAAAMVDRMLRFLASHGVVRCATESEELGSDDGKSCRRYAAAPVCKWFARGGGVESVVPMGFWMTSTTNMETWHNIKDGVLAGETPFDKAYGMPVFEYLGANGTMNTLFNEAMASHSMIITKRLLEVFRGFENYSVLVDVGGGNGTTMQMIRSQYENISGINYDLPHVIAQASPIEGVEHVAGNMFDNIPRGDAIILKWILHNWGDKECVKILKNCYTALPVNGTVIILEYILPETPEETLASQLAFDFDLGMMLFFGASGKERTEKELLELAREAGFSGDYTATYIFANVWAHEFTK
From the text: The products from these reactions were then chemically analyzed by gas chromatography/mass spectroscopy. […] Thus, only about 2% of the product obtained was pterostilbene; 88% was 3,5-dihydroxy-4′-methoxystilbene (FIG. 7B).

SbOMT3 = molecular target: T2, SbOMT3 (Sorghum bicolor, UniProt A8QW53, DUP296-296); settings: for Relative Activity (%) of Recombinant SbOMT3: relative to 5-n-pentyl-resorcinol = 100%, 30 min at 30° C.
T2 construct: full-length open reading frames for all three OMTs were overexpressed in E. coli as N-terminal polyhistidine fusions; polyhistidine (pET15b) (N); made in house; host or cells: E. coli BL21/DE3
Method: Substrate specificities and kinetic parameters for recombinant OMTs were determined using to a modified protocol based on Wang and Pichersky (1999. Arch. Biochem. Biophys. 368: 172-180). All enzymatic assays consisted of 90 μL of assay buffer (250 mM Tris-HCl, pH 7.5, 10 mM DTT), 200 μL of purified enzyme preparation (200 μg protein/ml in), 5 μL of a 10 mM substrate stock solution (dissolved in 100% ethanol), and 5 μL of S-[methyl-^14C] adenosyl-L-methionine (40-60 mCi/mmol, 0.1 mCi/ml; ICN Biomedicals, Irvine, Calif.). Reactions were incubated for 30 min at 30° C. using a Thermomixer (Brinkman Instrument, Westbury, N.Y.), then quenched by addition of 25 μL of 6 N HCl. Radiolabeled products were subsequently extracted by the addition of 1 mL of hexane:ethyl acetate (1:1 vol/vol), and 300 μL of the (upper) organic phase were transferred to scintillation vials containing 5 mL of Ultima Gold scintillation fluid (Packard BioScience, Meriden, CT). Scintillation counts were performed using a Tri-Carb 1600TR Liquid Scintillation Analyzer (Packard BioScience). Protein concentrations and time points used for activity measurements were controlled to insure linearity of the assays. Kinetic parameters were determined from assays performed in triplicate as described above, but with substrate concentrations ranging from 10 μM to 10 mM. Data from enzyme kinetics experiments were fit to the Michaelis-Menten equation using the SigmaPlot v. 9.01 enzyme kinetics module (Systat Software, Inc., Point Richmond, Calif.).
A panel of benzene-derivatives containing different functional groups and substitution patterns were tested in enzyme assays with all three recombinant enzymes (Table 2), including a series of 5-n-alkylresorcinols of increasing chain length, as well as 5-n-pentadecatrienyl resorcinol, the proposed sorgoleone pathway intermediate and in vivo substrate for the participating OMT enzyme (FIG. 1). For these analyses, full-length open reading frames for all three OMTs were overexpressed in E. coli as N-terminal polyhistidine fusions, purified using an activated Ni-column, then radiometrically assayed in the presence of different substrates as described by Wang and Pichersky (1999, supra), with slight modifications.

SbOMT1 [2] = molecular target: T1, SbOMT1; assay: OMT enzymatic assay (radiometric, 14C-SAM) with recombinant SbOMT1; settings: relative to eugenol = 100%; 30 min at 30° C.
[3] = recombinant SbOMT3, alkylresorcinols

T2 sequence (A8QW53 other isoform, or with tags, fused parts or gaps DUP296-296): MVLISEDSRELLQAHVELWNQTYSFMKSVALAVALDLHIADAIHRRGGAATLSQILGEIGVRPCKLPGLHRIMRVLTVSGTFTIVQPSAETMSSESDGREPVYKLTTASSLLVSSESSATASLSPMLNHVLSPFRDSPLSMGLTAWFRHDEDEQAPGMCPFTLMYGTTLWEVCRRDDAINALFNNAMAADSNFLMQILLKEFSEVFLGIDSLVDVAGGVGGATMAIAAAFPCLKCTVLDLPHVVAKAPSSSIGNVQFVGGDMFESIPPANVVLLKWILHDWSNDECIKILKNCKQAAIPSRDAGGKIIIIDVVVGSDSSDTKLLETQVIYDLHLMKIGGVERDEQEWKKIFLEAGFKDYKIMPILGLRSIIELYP

SMILES: COc1ccc(C=Cc2cc(O)cc(O)c2)cc1 [3,5-dihydroxy-4′-methoxystilbene]
- share of the product obtained from reaction of SbOMT1 with resveratrol (SbOMT1 [1]): 88%

SMILES: COc1ccc(O)cc1 [4-Methoxyphenol]
- Relative Activity (%) of Recombinant SbOMT3 (SbOMT3): 3.3 ± 0.6%
- Relative Activity (%) of Recombinant SbOMT1 (SbOMT1 [2]): 8.3 ± 0.5%

SMILES: CCCCc1cc(O)cc(O)c1 [5-n-Butyl-resorcinol]
- Relative Activity (%) of Recombinant SbOMT3 (SbOMT3): 42.0 ± 1.2%
- Relative Activity (%) of Recombinant SbOMT1 (SbOMT1 [2]): 1.1 ± 0.1%

SMILES: CCCCCCCc1cc(O)cc(O)c1 [5-n-Heptyl-resorcinol]
- Relative Activity (%) of Recombinant SbOMT3 (SbOMT3): 27.2 ± 1.3%
- Relative Activity (%) of Recombinant SbOMT1 (SbOMT1 [2]): 0%

SMILES: CCCCCCc1cc(O)cc(O)c1 [5-n-Hexyl-resorcinol]
- Relative Activity (%) of Recombinant SbOMT3 (SbOMT3): 79.4 ± 7.6%
- Relative Activity (%) of Recombinant SbOMT1 (SbOMT1 [2]): 0%

SMILES: CCCCCCCCCc1cc(O)cc(O)c1 [5-n-Nonyl-resorcinol]
- Relative Activity (%) of Recombinant SbOMT3 (SbOMT3): 3.3 ± 0.8%
- Relative Activity (%) of Recombinant SbOMT1 (SbOMT1 [2]): 0%

SMILES: CCCCCCCCCCCCCCCc1cc(O)cc(O)c1 [5-n-Pentadecyl-resorcinol]
- Relative Activity (%) of Recombinant SbOMT3 (SbOMT3): 5.0 ± 0.4%
- Relative Activity (%) of Recombinant SbOMT1 (SbOMT1 [2]): <1.0%

SMILES: CCCCCc1cc(O)cc(O)c1 [5-n-Pentyl-resorcinol]
- Relative Activity (%) of Recombinant SbOMT3 (SbOMT3): 100 ± 2.2%

SMILES: CCCc1cc(O)cc(O)c1 [5-n-Propyl-resorcinol]
- Kcat (SbOMT3; [3]): 1.9 s^−1 × 10^4
- V max (SbOMT3; [3]): 15.6 nmol/mg/h
- Km (SbOMT3; recombinant SbOMT3, alkylresorcinols and co-substrate SAM): 1440 µM
- Relative Activity (%) of Recombinant SbOMT3 (SbOMT3): 11.8 ± 0.2%
- Relative Activity (%) of Recombinant SbOMT1 (SbOMT1 [2]): 2.2 ± 0.9%

SMILES: C=CC/C=C\C/C=C\CCCCCCCc1cc(O)cc(O)c1 [5-n-[8′, 11′, 14′]-Pentadecatrienyl-resorcinol]
- activity of SbOMT3 relative to that for 5-pentadecyl resorcinol (SbOMT3; higher than saturated side chain analogue of identical length): approximately 3 fold
- Relative Activity (%) of Recombinant SbOMT3 (SbOMT3): 14.9 ± 4.3%

SMILES: O=C(O)/C=C/c1ccc(O)c(O)c1 [Caffeic acid]
- Relative Activity (%) of Recombinant SbOMT3 (SbOMT3): 3.6 ± 0.6 3.6 ± 0.6%

SMILES: Oc1ccccc1O [Catechol]
- Relative Activity (%) of Recombinant SbOMT3 (SbOMT3): 3.6 ± 0.6 3.6 ± 0.6%
